The values that follow come from BindingDB's records for doi:10.1016/s0028-3908(05)80009-7 (Universit&Eacute, 1994).

Where a SMILES comes first, the peptide text is derived from it. [ ]: non-standard residue; d: D form. ξ: configuration not given here. Ile(3ξ) = CCC(C)[C@H](N)C(=O)O

The assay addresses T1, Pituitary adenylate cyclase-activating polypeptide (Rattus norvegicus, UniProt P13589).
T1 sequence (P13589 whole entry): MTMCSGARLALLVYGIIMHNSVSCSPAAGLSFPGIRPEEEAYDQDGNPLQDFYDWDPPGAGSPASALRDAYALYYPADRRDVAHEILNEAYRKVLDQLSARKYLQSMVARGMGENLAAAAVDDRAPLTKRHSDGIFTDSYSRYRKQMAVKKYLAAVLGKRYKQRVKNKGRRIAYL

Take `CCC(C)[C@H](NC(=O)CNC(=O)[C@H](CC(=O)O)NC(=O)[C@H](Cc1ccccc1)NC(=O)[C@@H](N)Cc1cnc[nH]1)C(=O)N[C@@H](Cc1ccccc1)C(=O)N[C@H](C(=O)N[C@@H](CC(=O)O)C(=O)N[C@@H](CO)C(=O)N[C@@H](Cc1ccc(O)cc1)C(=O)N[C@@H](CO)C(=O)N[C@@H](CCCN=C(N)N)C(=O)N[C@@H](Cc1ccc(O)cc1)C(=O)N[C@@H](CCCN=C(N)N)C(=O)N[C@@H](CCCCN)C(=O)N[C@@H](CCC(N)=O)C(=O)N[C@@H](CCSC)C(=O)N[C@@H](C)C(=O)N[C@H](C(=O)N[C@@H](CCCCN)C(=O)N[C@@H](CCCCN)C(=O)N[C@@H](Cc1ccc(O)cc1)C(=O)N[C@@H](CC(C)C)C(=O)N[C@@H](C)C(=O)N[C@@H](C)C(=O)N[C@H](C(=O)N[C@@H](CC(C)C)C(N)=O)C(C)C)C(C)C)[C@@H](C)O` (stereo partly drawn) [[Phe2]PACAP(1-27)]: the affinity, expressed as Ki, was 60 nM.
With “H-SRYRKQMAVKKYLAAVLGKRYKQRVKNK-NH2 [PACAP(11-38)]” the figure was 100 nM; with “H-FTDSYSRYRKQMAVKKYLAAVL-NH2 [PACAP(5-27)]”, 1000 nM.
With “H-SYSRYRKQMAVKKYLAAVLGKRYKQRVKNK-NH2 [PACAP(9-38)]” the figure was 30 nM.
The result for `CC[C@H](C)[C@H](NC(=O)CNC(=O)[C@H](CC(=O)O)NC(=O)[C@H](CO)NC(=O)[C@H](Cc1cnc[nH]1)NC(C)=O)C(=O)N[C@@H](Cc1ccccc1)C(=O)N[C@H](C(=O)N[C@@H](CC(=O)O)C(=O)N[C@@H](CO)C(=O)N[C@@H](Cc1ccc(O)cc1)C(=O)N[C@@H](CO)C(=O)N[C@@H](CCCNC(=N)N)C(=O)N[C@@H](Cc1ccc(O)cc1)C(=O)N[C@@H](CCCNC(=N)N)C(=O)N[C@@H](CCCCN)C(=O)N[C@@H](CCC(N)=O)C(=O)N[C@@H](CCSC)C(=O)N[C@@H](C)C(=O)N[C@H](C(=O)N[C@@H](CCCCN)C(=O)N[C@@H](CCCCN)C(=O)N[C@@H](Cc1ccc(O)cc1)C(=O)N[C@@H](CC(C)C)C(=O)N[C@@H](C)C(=O)N[C@@H](C)C(=O)N[C@H](C(=O)N[C@@H](CC(C)C)C(N)=O)C(C)C)C(C)C)[C@@H](C)O` [[AcHis1]PACAP(1-27)] reads 1 nM; that for `CNC(=O)[C@H](Cc1ccc(O)cc1)NC(=O)[C@H](CCCN=C(N)N)NC(=O)[C@H](CCCCN)NC(=O)CNC(=O)[C@H](CC(C)C)NC(=O)[C@@H](NC(=O)[C@H](C)NC(=O)[C@H](C)NC(=O)[C@H](CC(C)C)NC(=O)[C@H](Cc1ccc(O)cc1)NC(=O)[C@H](CCCCN)NC(=O)[C@H](CCCCN)NC(=O)[C@@H](NC(=O)[C@H](C)NC(=O)[C@H](CCSC)NC(=O)[C@H](CCC(N)=O)NC(=O)[C@H](CCCCN)NC(=O)[C@H](CCCN=C(N)N)NC(=O)[C@H](Cc1ccc(O)cc1)NC(=O)[C@H](CCCN=C(N)N)NC(=O)[C@H](CO)NC(=O)[C@H](Cc1ccc(O)cc1)NC(=O)[C@H](CO)NC(=O)[C@H](CC(=O)O)NC(=O)[C@@H](NC(=O)[C@@H](N)Cc1ccccc1)[C@@H](C)O)C(C)C)C(C)C` [PACAP(6-31)] (H-FTDSYSRYRKQMAVKKYLAAVLGKRY-NHMe), 3 nM.
Regarding “H-TDSYSRYRKQMAVKKYLAAVL-NH2 [PACAP(6-27)]”, the Ki was found to be 3000 nM.
As to `[C][C][C]([C])[C@H]([N]C(=O)[C][N]C(=O)[C@H]([C][C]C([O])=O)[N]C(=O)[C@@H]([N])[C][O])C(=O)[N][C@@H]([C]c1ccccc1)C(=O)[N][C@H](C(=O)[N][C@@H]([C]C([O])=O)C(=O)[N][C@@H]([C][O])C(=O)[N][C@@H]([C]c1ccc([O])cc1)C(=O)[N][C@@H]([C][O])C(=O)[N][C@@H]([C][C][C]N=C([N])[N])C(=O)[N][C@@H]([C]c1ccc([O])cc1)C(=O)[N][C@@H]([C][C][C]N=C([N])[N])C(=O)[N][C@@H]([C][C][C][C][N])C(=O)[N][C@@H]([C][C]C([N])=O)C(=O)[N][C@@H]([C][C]S[C])C(=O)[N][C@@H]([C])C(=O)[N][C@@H]([C]([C])[C])C(=O)[N][C@@H]([C][C][C][C][N])C(=O)[N][C@@H]([C][C][C][C][N])C(=O)[N][C@@H]([C]c1ccc([O])cc1)C(=O)[N][C@@H]([C][C]([C])[C])C(=O)[N][C@@H]([C])C(=O)[N][C@@H]([C])C(=O)[N][C@@H]([C]([C])[C])C(=O)[N][C@@H]([C][C]([C])[C])C([N])=O)[C@@H]([C])[O]` [PACAP(2-27)], the affinity, expressed as Ki, was 30 nM.
With `CCC(C)[C@H](NC(=O)CNC(=O)[C@H](CC(=O)O)NC(=O)[C@@H](Cc1ccccc1)NC(=O)[C@@H](N)Cc1cnc[nH]1)C(=O)N[C@@H](Cc1ccccc1)C(=O)N[C@H](C(=O)N[C@@H](CC(=O)O)C(=O)N[C@@H](CO)C(=O)N[C@@H](Cc1ccc(O)cc1)C(=O)N[C@@H](CO)C(=O)N[C@@H](CCCN=C(N)N)C(=O)N[C@@H](Cc1ccc(O)cc1)C(=O)N[C@@H](CCCN=C(N)N)C(=O)N[C@@H](CCCCN)C(=O)N[C@@H](CCC(N)=O)C(=O)N[C@@H](CCSC)C(=O)N[C@@H](C)C(=O)N[C@H](C(=O)N[C@@H](CCCCN)C(=O)N[C@@H](CCCCN)C(=O)N[C@@H](Cc1ccc(O)cc1)C(=O)N[C@@H](CC(C)C)C(=O)N[C@@H](C)C(=O)N[C@@H](C)C(=O)N[C@H](C(=O)N[C@@H](CC(C)C)C(N)=O)C(C)C)C(C)C)[C@@H](C)O` (stereo partly drawn) [[D-Phe2]PACAP-27] the figure was 800 nM.
`CCC(C)[C@H](NC(=O)CNC(=O)[C@H](CC(=O)O)NC(=O)[C@@H](N)CO)C(=O)N[C@@H](Cc1ccccc1)C(=O)N[C@H](C(=O)N[C@@H](CC(=O)O)C(=O)N[C@@H](CO)C(=O)N[C@@H](Cc1ccc(O)cc1)C(=O)N[C@@H](CO)C(=O)N[C@@H](CCCN=C(N)N)C(=O)N[C@@H](Cc1ccc(O)cc1)C(=O)N[C@@H](CCCN=C(N)N)C(=O)N[C@@H](CCCCN)C(=O)N[C@@H](CCC(N)=O)C(=O)N[C@@H](CCSC)C(=O)N[C@@H](C)C(=O)N[C@H](C(=O)N[C@@H](CCCCN)C(=O)N[C@@H](CCCCN)C(=O)N[C@@H](Cc1ccc(O)cc1)C(=O)N[C@@H](CC(C)C)C(=O)N[C@@H](C)C(=O)N[C@@H](C)C(=O)N[C@H](C(=O)N[C@@H](CC(C)C)C(=O)NCC(=O)N[C@@H](CCCCN)C(=O)N[C@@H](CCCN=C(N)N)C(=O)N[C@@H](Cc1ccc(O)cc1)C(=O)N[C@@H](CCCCN)C(=O)N[C@@H](CCC(N)=O)C(=O)N[C@@H](CCCN=C(N)N)C(=O)N[C@H](C(=O)N[C@@H](CCCCN)C(=O)N[C@@H](CC(N)=O)C(=O)N[C@@H](CCCCN)C(N)=O)C(C)C)C(C)C)C(C)C)[C@@H](C)O` (stereo partly drawn) [PACAP(2-38)] (H-SDG[Ile(3ξ)]FTDSYSRYRKQMAVKKYLAAVLGKRYKQRVKNK-NH2): the Ki was 3 nM.
Compound `CC[C@H](C)[C@H](NC(=O)CNC(=O)[C@H](CC(=O)O)NC(=O)[C@@H](C)NC(=O)[C@@H](N)Cc1cnc[nH]1)C(=O)N[C@@H](Cc1ccccc1)C(=O)N[C@H](C(=O)N[C@@H](CC(=O)O)C(=O)N[C@@H](CO)C(=O)N[C@@H](Cc1ccc(O)cc1)C(=O)N[C@@H](CO)C(=O)N[C@@H](CCCN=C(N)N)C(=O)N[C@@H](Cc1ccc(O)cc1)C(=O)N[C@@H](CCCN=C(N)N)C(=O)N[C@@H](CCCCN)C(=O)N[C@@H](CCC(N)=O)C(=O)N[C@@H](CCSC)C(=O)N[C@@H](C)C(=O)N[C@H](C(=O)N[C@@H](CCCCN)C(=O)N[C@@H](CCCCN)C(=O)N[C@@H](Cc1ccc(O)cc1)C(=O)N[C@@H](CC(C)C)C(=O)N[C@@H](C)C(=O)N[C@@H](C)C(=O)N[C@H](C(=O)N[C@@H](CC(C)C)C(N)=O)C(C)C)C(C)C)[C@@H](C)O` [[DAla2]PACAP(1-27)] returned an inhibitory constant (Ki) of 8 nM.
With `CC[C@H](C)[C@H](NC(=O)CNC(=O)[C@H](CC(=O)O)NC(=O)[C@H](C)NC(=O)[C@@H](N)Cc1cnc[nH]1)C(=O)N[C@@H](Cc1ccccc1)C(=O)N[C@H](C(=O)N[C@@H](CC(=O)O)C(=O)N[C@@H](CO)C(=O)N[C@@H](Cc1ccc(O)cc1)C(=O)N[C@@H](CO)C(=O)N[C@@H](CCCNC(=N)N)C(=O)N[C@@H](Cc1ccc(O)cc1)C(=O)N[C@@H](CCCNC(=N)N)C(=O)N[C@@H](CCCCN)C(=O)N[C@@H](CCC(N)=O)C(=O)N[C@@H](CCSC)C(=O)N[C@@H](C)C(=O)N[C@H](C(=O)N[C@@H](CCCCN)C(=O)N[C@@H](CCCCN)C(=O)N[C@@H](Cc1ccc(O)cc1)C(=O)N[C@@H](CC(C)C)C(=O)N[C@@H](C)C(=O)N[C@@H](C)C(=O)N[C@H](C(=O)N[C@@H](CC(C)C)C(N)=O)C(C)C)C(C)C)[C@@H](C)O` [[Ala2]PACAP(1-27)] the figure was 0.3 nM; with `CC[C@H](C)[C@H](NC(=O)CNC(=O)[C@H](CC(=O)O)NC(=O)[C@H](CO)NC(=O)[C@@H](N)Cc1ccccc1)C(=O)N[C@@H](Cc1ccccc1)C(=O)N[C@H](C(=O)N[C@@H](CC(=O)O)C(=O)N[C@@H](CO)C(=O)N[C@@H](Cc1ccc(O)cc1)C(=O)N[C@@H](CO)C(=O)N[C@@H](CCCN=C(N)N)C(=O)N[C@@H](Cc1ccc(O)cc1)C(=O)N[C@@H](CCCN=C(N)N)C(=O)N[C@@H](CCCCN)C(=O)N[C@@H](CCC(N)=O)C(=O)N[C@@H](CCSC)C(=O)N[C@@H](C)C(=O)N[C@H](C(=O)N[C@@H](CCCCN)C(=O)N[C@@H](CCCCN)C(=O)N[C@@H](Cc1ccc(O)cc1)C(=O)N[C@@H](CC(C)C)C(=O)N[C@@H](C)C(=O)N[C@@H](C)C(=O)N[C@H](C(=O)N[C@@H](CC(C)C)C(N)=O)C(C)C)C(C)C)[C@@H](C)O` [[Phe1]PACAP(1-27)], 600 nM.
